This is an account of results in patent US7858635B2 (priority 2005, dated 2010).

Molecules are shown by their SMILES.

The target of test [1] is T1, M1 muscarinic receptor (Homo sapiens, UniProt P11229).
T1 construct: expressed in transfected cells; host or cells: CHO cells (M1-CHO, under zeocin and G418 selection)
T1 sequence (P11229 1-460): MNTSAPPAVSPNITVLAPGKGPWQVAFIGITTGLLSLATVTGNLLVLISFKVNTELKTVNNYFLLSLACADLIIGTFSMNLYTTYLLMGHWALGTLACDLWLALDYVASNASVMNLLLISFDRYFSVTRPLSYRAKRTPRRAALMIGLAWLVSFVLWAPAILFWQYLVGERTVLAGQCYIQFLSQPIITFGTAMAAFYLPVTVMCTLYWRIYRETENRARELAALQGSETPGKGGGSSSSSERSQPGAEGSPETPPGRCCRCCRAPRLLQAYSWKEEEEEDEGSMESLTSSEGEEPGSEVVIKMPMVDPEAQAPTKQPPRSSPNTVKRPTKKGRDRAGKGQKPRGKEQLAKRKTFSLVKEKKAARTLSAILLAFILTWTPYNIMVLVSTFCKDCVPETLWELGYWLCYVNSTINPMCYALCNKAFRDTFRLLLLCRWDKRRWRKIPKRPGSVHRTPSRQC
The test is described as follows: Functional mobilization of intracellular calcium (FLIPR, Fluo-3), M1-CHO cells. Type of test: cell-based. Particulars: compound nos. 1-454; for Emax: 100% efficacy is the maximum response obtained with the Carbachol control, read-out: M1 Efficacy. The method, boiled down:
(§1)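 CHO lines stably carrying the muscarinic subtype, dye-loaded with Fluo-3 at 37° C for 60-90 min, receive test compound in 0.5% DMSO. Agonist effects are read directly; antagonist effects against carbachol at EC80 after 15 min pre-incubation.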

Test [2] concerns the target T2, M4 muscarinic receptor (Homo sapiens, UniProt P08173).
T2 construct: expressed in transfected cells; host or cells: CHO cells (M4-CHO, under puromycin, zeocin and blasticidin selection)
T2 sequence (P08173 1-479): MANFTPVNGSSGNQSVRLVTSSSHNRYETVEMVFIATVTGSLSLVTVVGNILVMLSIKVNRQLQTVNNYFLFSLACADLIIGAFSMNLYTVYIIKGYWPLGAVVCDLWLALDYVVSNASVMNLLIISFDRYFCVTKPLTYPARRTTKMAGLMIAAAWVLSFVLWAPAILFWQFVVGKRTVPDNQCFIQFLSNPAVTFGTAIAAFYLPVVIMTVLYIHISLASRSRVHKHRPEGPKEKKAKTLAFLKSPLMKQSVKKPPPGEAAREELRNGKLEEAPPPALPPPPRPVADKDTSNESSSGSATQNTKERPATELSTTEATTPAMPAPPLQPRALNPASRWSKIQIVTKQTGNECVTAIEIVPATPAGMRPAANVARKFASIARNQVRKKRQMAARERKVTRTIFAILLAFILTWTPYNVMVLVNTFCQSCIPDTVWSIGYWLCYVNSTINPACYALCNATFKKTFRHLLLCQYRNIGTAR
The test is described as follows: Functional mobilization of intracellular calcium (FLIPR, Fluo-3), M4-CHO cells. Particulars: compound nos. 1-454; for Emax: read-out: M4 Efficacy. Type of test: cell-based. The gist of the method: as §1

Where [3] appears, read: M1-CHO cells, calcium mobilization.
[4] abbreviates: 100% efficacy is the maximum response obtained with the Carbachol control.
Setting [5] is: M4-CHO cells, calcium mobilization.

Regarding `CCOC(=O)N1CCC(N2CCC3(CC2)CN(C(=O)c2ccc(OC)cc2)c2ccc(F)cc23)CC1` [compound 41], the Emax in test [1] is over 85%; in test [2] (setting [4]) it was over 70%. Further, the “M1 Activity” value in test [1] (setting [3]) was “+++ (activity was measured to be less than or equal to 0.7 μM)”. In test [2] (setting [5]), the “M4 Activity” value is reported as “+++ (activity was measured to be less than or equal to 0.1 μM)”.

For `CCOC(=O)N[C@H]1CC2(CCN(C[C@H]3C[C@H]4CC[C@H]3C4)CC2)c2ccccc21` [compound 326], the Emax in test [1] was under 65%; in test [2] (setting [4]) it was under 55%. Moreover, the “M1 Activity” value in test [1] (setting [3]) is recorded as “+ (activity was measured to be greater than or equal to 3.0 μM)”. Moreover, the “M4 Activity” value in test [2] (setting [5]) is recorded as “+ (activity was measured to be greater than or equal to 4.0 μM)”.

As for `CC(=O)N1CC2(CCN(CC3CCN(C(=O)OC(C)C)CC3)CC2)c2cc(F)ccc21` [compound 202], the Emax in test [1] was 65 to 85%; in test [2] (setting [4]), under 55%. Also, the “M1 Activity” value in test [1] (setting [3]) was “++ (activity was measured to be between 0.7 μM and 3.0 μM)”. The “M4 Activity” value in test [2] (setting [5]) is reported as “+ (activity was measured to be greater than or equal to 4.0 μM)”.

In the case of `CCC1CCC(N2CCC3(CC2)C[C@H](NC(C)=O)c2ccccc23)CC1` (some centres unmarked) [compound 367], the Emax was under 65% in test [1] and under 55% in test [2] (setting [4]). In test [1] (setting [3]), the “M1 Activity” value is recorded as “+ (activity was measured to be greater than or equal to 3.0 μM)”. In test [2] (setting [5]), the “M4 Activity” value is listed as “+ (activity was measured to be greater than or equal to 4.0 μM)”.

With `CN(C)C(=O)N1CC2(CCN(C3CCN(c4ccccn4)CC3)CC2)c2cc(F)ccc21` [compound 452], in test [1], the “M1 Activity” value is “++ (activity was measured to be between 0.7 μM and 3.0 μM)”; the Emax lay in the range of 65 to 85%. Moreover, the “M4 Activity” value in test [2] is recorded as “+++ (activity was measured to be less than or equal to 0.1 μM)”. Besides, the Emax in test [2] (setting [4]) lay within 55 to 70%.

With `CC(=O)NC1CC2(CCN(C[C@H]3C[C@H]4C=C[C@H]3C4)CC2)c2ccccc21` (some centres unmarked) [compound 392], the “M1 Activity” value in test [1] is recorded as “+++ (activity was measured to be less than or equal to 0.7 μM)”. In test [2], the “M4 Activity” value was “+ (activity was measured to be greater than or equal to 4.0 μM)”. Moreover, the “M4 Efficacy” value in test [2] (setting [4]) is listed as “+ (efficacy was calculated to be 55% or less)”.

`CN([C@H]1CC2(CCN(C[C@H]3C[C@H]4CC[C@H]3C4)CC2)c2ccccc21)S(C)(=O)=O` [compound 357]: the Emax in test [1] is under 65%; in test [2] (setting [4]) it was under 55%. Also, in test [1] (setting [3]), the “M1 Activity” value is “++ (activity was measured to be between 0.7 μM and 3.0 μM)”. Besides, the “M4 Activity” value in test [2] (setting [5]) is recorded as “+ (activity was measured to be greater than or equal to 4.0 μM)”.

As to `CCOC(=O)N1CCC(N2CCC3(CC2)CN(C(C)=O)c2ccc(OC)cc23)CC1` [compound 340], the Emax in test [1] is under 65%; in test [2] (setting [4]) it was under 55%. In addition, the “M1 Activity” value in test [1] (setting [3]) is “++ (activity was measured to be between 0.7 μM and 3.0 μM)”. In addition, the “M4 Activity” value in test [2] (setting [5]) was “+ (activity was measured to be greater than or equal to 4.0 μM)”.

As to `O=C(O[C@@H]1CCOC1)N1C2CCC1CC(N1CCC3(CC1)COc1ccc(F)cc13)C2` (some centres unmarked) [compound 338], the Emax in test [1] was under 65%; in test [2] (setting [4]), under 55%. Further, the “M1 Activity” value in test [1] (setting [3]) is recorded as “+ (activity was measured to be greater than or equal to 3.0 μM)”. In test [2] (setting [5]), the “M4 Activity” value was “+ (activity was measured to be greater than or equal to 4.0 μM)”.

`O=C(OCC(F)(F)F)N1C2CCC1CC(N1CCC3(CC1)COc1ccc(F)cc13)C2` (centres unmarked) [compound 124]: the Emax in test [1] was under 65%; in test [2] (setting [4]), under 55%. Further, in test [1] (setting [3]), the “M1 Activity” value is recorded as “+++ (activity was measured to be less than or equal to 0.7 μM)”. The “M4 Activity” value in test [2] (setting [5]) was “++ (activity was measured to be between 0.1 μM and 4.0 μM)”.

Take `Clc1ccc2c(c1)C1(CCO2)CCN(C[C@@H]2C[C@H]3C=C[C@H]2C3)CC1` [compound 164]: the Emax in test [1] was over 85%; in test [2] (setting [4]), over 70%. The “M1 Activity” value in test [1] (setting [3]) was “++ (activity was measured to be between 0.7 μM and 3.0 μM)”. Further, the “M4 Activity” value in test [2] (setting [5]) is on record as “+ (activity was measured to be greater than or equal to 4.0 μM)”.

As for `CCCOC(=O)N1C2CCC1CC(N1CCC3(CC1)COc1ccc(F)cc13)C2` (centres unmarked) [compound 283], the Emax in test [1] is 65 to 85%; in test [2] (setting [4]), 55 to 70%. Moreover, in test [1] (setting [3]), the “M1 Activity” value is “++ (activity was measured to be between 0.7 μM and 3.0 μM)”. Further, the “M4 Activity” value in test [2] (setting [5]) is listed as “+ (activity was measured to be greater than or equal to 4.0 μM)”.

Regarding `CCOC(=O)N1C2CCC1CC(N1CCC3(CC1)CNc1ccc(C)cc13)C2` (centres unmarked) [compound 109], the Emax was 65 to 85% in test [1] and under 55% in test [2] (setting [4]). Besides, the “M1 Activity” value in test [1] (setting [3]) was “+++ (activity was measured to be less than or equal to 0.7 μM)”. The “M4 Activity” value in test [2] (setting [5]) is “++ (activity was measured to be between 0.1 μM and 4.0 μM)”.

Turning to `CCOC(=O)N1C2CCC1CC(N1CCC3(CC1)CN(C(=O)O[C@@H]1CCOC1)c1ccc(F)cc13)C2` (some centres unmarked) [compound 28], the Emax in test [1] was over 85%; in test [2] (setting [4]), 55 to 70%. For the same compound, in test [1] (setting [3]), the “M1 Activity” value is listed as “+++ (activity was measured to be less than or equal to 0.7 μM)”. In test [2] (setting [5]), the “M4 Activity” value was “++ (activity was measured to be between 0.1 μM and 4.0 μM)”.

For `COCCOC(=O)N1CCC(N2CCC3(CC2)CN(C(=O)N(C)C)c2ccc(F)cc23)CC1` [compound 265], the Emax in test [1] is under 65%; in test [2] (setting [4]), under 55%. Also, in test [1] (setting [3]), the “M1 Activity” value is “++ (activity was measured to be between 0.7 μM and 3.0 μM)”. The “M4 Activity” value in test [2] (setting [5]) is “++ (activity was measured to be between 0.1 μM and 4.0 μM)”.

On to `CN(C)C(=O)N1CC2(CCN(C3CCN(c4cncnc4)CC3)CC2)c2cc(F)ccc21` [compound 446], for which, in test [1], the “M1 Activity” value was “++ (activity was measured to be between 0.7 μM and 3.0 μM)”. Also, the Emax in test [1] was 65 to 85%; in test [2] (setting [4]) it was 55 to 70%. In addition, the “M4 Activity” value in test [2] was “+++ (activity was measured to be less than or equal to 0.1 μM)”.

In the case of `CCOC(=O)N1CCC(N2CCC3(CC2)CN(C(=O)c2ccno2)c2ccc(F)cc23)CC1` [compound 321], the Emax in test [1] fell in the range of 65 to 85%; in test [2] (setting [4]) it was 55 to 70%. Also, in test [1] (setting [3]), the “M1 Activity” value is “++ (activity was measured to be between 0.7 μM and 3.0 μM)”. Besides, the “M4 Activity” value in test [2] (setting [5]) is “+ (activity was measured to be greater than or equal to 4.0 μM)”.

As to `CCOC(=O)N1CCC(N2CCC3(CC2)CN(C(C)=O)c2ccc(-c4ccncc4)cc23)CC1` [compound 105], the Emax in test [1] was under 65%; in test [2] (setting [4]), under 55%. Besides, the “M1 Activity” value in test [1] (setting [3]) was “++ (activity was measured to be between 0.7 μM and 3.0 μM)”. Moreover, the “M4 Activity” value in test [2] (setting [5]) is “+ (activity was measured to be greater than or equal to 4.0 μM)”.

`CN(C)C(=O)N1CC2(CCN(C3CC4CCC(C3)N4C(=O)O[C@H]3CCOC3)CC2)c2cc(F)ccc21` (some centres unmarked) [compound 130]: the Emax in test [1] is under 65%; in test [2] (setting [4]), under 55%. The “M1 Activity” value in test [1] (setting [3]) is “+++ (activity was measured to be less than or equal to 0.7 μM)”. Further, in test [2] (setting [5]), the “M4 Activity” value is “++ (activity was measured to be between 0.1 μM and 4.0 μM)”.

As to `Cc1ccc2c(c1)C1(CCN([C@@H]3C[C@@H]4CC[C@@H]3C4)CC1)CN2` [compound 264], the figures for the Emax in test [1] and in test [2] (setting [4]) were under 65% and under 55%, respectively. In addition, in test [1] (setting [3]), the “M1 Activity” value was “+ (activity was measured to be greater than or equal to 3.0 μM)”. The “M4 Activity” value in test [2] (setting [5]) is listed as “+ (activity was measured to be greater than or equal to 4.0 μM)”.

Consider `CCOC(=O)N1CCC(N2CCC3(CC2)CN(C(=O)c2ccccn2)c2ccc(F)cc23)CC1` [compound 331], for which the figures for the Emax in test [1] and in test [2] (setting [4]) were under 65% and under 55%, respectively. The “M1 Activity” value in test [1] (setting [3]) is “++ (activity was measured to be between 0.7 μM and 3.0 μM)”. For the same compound, in test [2] (setting [5]), the “M4 Activity” value is listed as “+ (activity was measured to be greater than or equal to 4.0 μM)”.
